Patent US20260234157A1, “COMPOUND AND METHOD FOR TARGETED DEGRADATION OF ANDROGEN RECEPTOR” (Gan & Lee Pharmaceuticals Co., Ltd., priority 2023, published 2026)
Changes are numbered by the printed parent chain.

Key:
Type in all cases: cell-based
[1] = target: T1, AR protein (Homo sapiens, UniProt P10275, T878A); assay: Degradation of AR protein in LNCaP cells (Western blot); conditions: LNCaP cells, 8 hours, Western blot grayscale, GAPDH internal reference; for inhibition at 0.01 µM: compound 10 nM, read-out: Degradation rates of the AR protein in LNCaP cells, 10 nM (%); for inhibition at 0.1 µM: compound 100 nM, read-out: Degradation rates of the AR protein in LNCaP cells, 100 nM (%)
T1 construct: degradation activity of the compounds disclosed in the present disclosure on AR protein in LNCaP cells; host or cells: LNCaP FGC
T1 sequence (P10275 1-920 T878A): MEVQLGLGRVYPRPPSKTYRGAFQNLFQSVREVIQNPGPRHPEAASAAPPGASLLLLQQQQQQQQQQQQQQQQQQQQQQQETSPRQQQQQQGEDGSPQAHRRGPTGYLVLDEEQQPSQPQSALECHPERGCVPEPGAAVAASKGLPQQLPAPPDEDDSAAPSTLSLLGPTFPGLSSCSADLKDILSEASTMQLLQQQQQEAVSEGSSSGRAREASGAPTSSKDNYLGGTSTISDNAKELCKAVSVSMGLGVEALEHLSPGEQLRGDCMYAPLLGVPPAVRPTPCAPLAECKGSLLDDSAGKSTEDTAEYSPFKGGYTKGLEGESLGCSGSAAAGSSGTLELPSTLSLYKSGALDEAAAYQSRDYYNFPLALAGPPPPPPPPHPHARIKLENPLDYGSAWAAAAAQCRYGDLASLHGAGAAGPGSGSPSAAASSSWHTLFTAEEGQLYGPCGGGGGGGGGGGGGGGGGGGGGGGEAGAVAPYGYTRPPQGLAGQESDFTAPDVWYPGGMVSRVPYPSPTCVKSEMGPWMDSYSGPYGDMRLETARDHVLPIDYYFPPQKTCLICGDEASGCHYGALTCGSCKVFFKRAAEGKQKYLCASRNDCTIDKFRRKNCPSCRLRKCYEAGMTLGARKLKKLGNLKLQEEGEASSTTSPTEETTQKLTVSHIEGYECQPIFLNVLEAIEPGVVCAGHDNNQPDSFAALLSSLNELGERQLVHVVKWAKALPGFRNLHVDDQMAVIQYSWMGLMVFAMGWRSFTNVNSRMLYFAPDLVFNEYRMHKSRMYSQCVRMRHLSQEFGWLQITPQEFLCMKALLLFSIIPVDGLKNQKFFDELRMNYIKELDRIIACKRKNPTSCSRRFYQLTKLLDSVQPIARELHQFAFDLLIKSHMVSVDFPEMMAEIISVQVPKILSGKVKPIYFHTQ
In short: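 AR assessed by SDS-PAGE/Western blot with infrared imaging; band greyscale normalised to GAPDH gave percent degradation.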

[2] = test system: LNCaP FGC cells; assay: Inhibition of proliferation of LNCaP cells (WST-8); conditions: Homo sapiens, LNCaP, 96 h, LNCaP FGC cells, 96 hours, WST-8 absorbance at 450 nm; read-out: IC50 for inhibiting the proliferation of LNCaP cells
Method: The cells were cultured in a cell culture incubator with 5% CO2 at 37° C. overnight. […] On the sixth day, 96 well plates were taken out, and 20 μL of WST-8 (Beytime, C0040) reagent was added to each well.

[3] = target: T2, AR protein (Homo sapiens, UniProt P10275); assay: Degradation of AR protein in VCaP cells (Western blot); conditions: 8 hours; for inhibition at 0.01 µM: compound at 10 nM, read-out: Degradation rate of the AR protein in VCaP cells, 10 nM (%); for inhibition at 0.1 µM: compound at 100 nM, read-out: Degradation rate of the AR protein in VCaP cells, 100 nM (%)
T2 construct: degradation activity of the compounds disclosed in the present disclosure on AR protein in VCaP cells; host or cells: VCaP
T2 sequence (P10275 1-920): T1 sequence (P10275 1-920 T878A) with A878T
In short: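 VCaP cells treated with compound alongside solvent controls for 8 h, then lysed in RIPA and protein quantified by BCA. AR detected by SDS-PAGE/Western blot with infrared imaging. Degradation rate calculated from band grayscale, with GAPDH as internal reference.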

[4] = test system: VCaP cells; assay: Inhibition of proliferation of VCaP cells (WST-8); conditions: Homo sapiens; VCaP cells, 168 hours, WST-8 absorbance at 450 nm; read-out: IC50 for inhibiting the proliferation of VCaP cells
In short: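 VCaP FGC cells, 15000 per well in DMEM with 10% FBS, were cultured at 37° C, 5% CO2. On day nine, WST-8 reagent was added to read proliferation.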

inhibition at 0.01 µM [1]	inhibition at 0.1 µM [1]	IC50 [2]	inhibition at 0.01 µM [3]	inhibition at 0.1 µM [3]	IC50 [4]	SMILES
66%	50%	1250 nM	21%	56%	3910 nM	CC1(CN2CC3(CCc4cc5c(cc4O3)C(=O)N(C3CCC(=O)NC3=O)C5=O)C2)CCN(c2ccc(C(=O)N[C@H]3CC[C@H](Oc4ccc(C#N)c(Cl)c4)CC3)nn2)CC1 (stereo partly drawn) [Compound 2]
-14%	18%	60900 nM	-2%	6%	9420 nM	COc1cc(O[C@H]2C(C)(C)[C@H](NC(=O)c3ccc(N4CCC(C)(CN5CC6(CCc7ccc8c(c7O6)C(=O)N(C6CCC(=O)NC6=O)C8=O)C5)CC4)cc3)C2(C)C)ccc1C#N (stereo partly drawn) [Compound 290]
66%	61%	44400 nM	34%	78%	1.5 nM	COc1cc(O[C@H]2C(C)(C)[C@H](NC(=O)c3ccc(N4CCC(C)(CN5CC6(CCc7cc8c(cc7O6)C(=O)N(C6CCC(=O)NC6=O)C8)C5)CC4)cc3)C2(C)C)ccc1C#N (stereo partly drawn) [Compound 265]
78%	67%	2090 nM	24%	76%	1 nM	N#Cc1ccc(O[C@H]2CC[C@H](NC(=O)c3ccc(N4CCC(CN5CC6(CCc7cc8c(cc7O6)C(=O)N(C6CCC(=O)NC6=O)C8)C5)CC4)nn3)CC2)cc1Cl (stereo partly drawn) [Compound 8]
53%	63%	6600 nM	0%	59%	1 nM	COc1cc(O[C@H]2C(C)(C)[C@H](NC(=O)c3ccc(N4CCC(CN5CCC6(CCc7cc8c(cc7O6)CN(C6CCC(=O)NC6=O)C8=O)CC5)CC4)cc3)C2(C)C)ccc1C#N (stereo partly drawn) [Compound 296]
55%	67%	8810 nM	-11%	59%	35 nM	COc1cc(O[C@H]2C(C)(C)[C@H](NC(=O)c3ccc(N4CCC(CN5CCC6(CCc7cc8c(cc7O6)C(=O)N(C6CCC(=O)NC6=O)C8=O)CC5)CC4)cc3)C2(C)C)ccc1C#N (stereo partly drawn) [Compound 276]

SMILES	inhibition at 0.01 µM [1]	inhibition at 0.1 µM [1]	IC50 [2]	inhibition at 0.01 µM [3]	inhibition at 0.1 µM [3]	IC50 [4]
N#Cc1ccc(O[C@H]2CC[C@H](NC(=O)c3ccc(N4CC[C@H](CN5CCC6(CC5)COc5cc7c(cc56)C(=O)N(C5CCC(=O)NC5=O)C7=O)C4)nn3)CC2)cc1Cl (stereo partly drawn) [Compound 58]	33%	58%	1800 nM	91%	93%	69 nM
